Experimental data as given in patent publication US20250332173A1, “COMPOUNDS AND METHODS FOR MODULATING NUCLEIC ACID SPLICING” (REMIX THERAPEUTICS INC., priority 2021, published 2025).

Columns and labels:
MYB = test: HiBiT protein abundance assay, MYB HiBiT K562 cell line; assay type: cell-based, human; conditions: HiBiT K562 cell line, 24 hours, top dose 10 μM; read-out: Effect on protein abundance, MYB (IC50 category)
Outline: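 Endogenous targets in K562 knock-in lines carried a HiBiT tag and were treated for 24 h at 37 °C with 10-point 3-fold dilutions (top 10 μM final, DMSO ≤0.25%). Abundance was read as lytic Nano-Glo HiBiT luminescence. IC50 came from a four-parameter logistic fit of normalized response.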

Target C = test: HiBiT protein abundance assay, Target C (Promega Nano-Glo HiBiT Lytic Detection System, knock-in K562 cell line); assay type: cell-based, human; conditions: Homo sapiens, K562, 24 h, HiBiT K562 cell line, 24 hours, top dose 10 μM; read-out: Effect on protein abundance, Target C (IC50 category)
Outline: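 HiBiT knock-in K562 cells (10,000/well) were treated for 24 h at 37 °C with a 10-point 3-fold dilution series, top final concentration 10 μM, DMSO ≤0.25%. Lytic HiBiT luminescence was read, normalized to unmodified K562 and DMSO-treated controls, and IC50 was interpolated from a four-parameter logistic fit.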

IC50 (MYB) [nM]	IC50 (Target C) [nM]	Structure (SMILES)
100 to 1000	100 to 1000	Cc1cn2nc(-c3ccc4c(=O)n(C5C[C@@H](C)N[C@H](C)C5)ncc4n3)cc(C)c2n1 (stereo in doubt) [Compound 1537, 2-(2,8-dimethylimidazo[1,2-b]pyridazin-6-yl)-6-[(2R,6R)-2,6-dimethyl-4-piperidyl]pyrido[2,3-d]pyridazin-5-one]
100 to 1000	100 to 1000	Cc1cn2nc(-c3ccc4c(=O)n([C@H]5CC(C)N[C@@H](C)C5)ncc4n3)cc(C)c2n1 (stereo in doubt) [Compound 1538, 2-(2,8-dimethylimidazo[1,2-b]pyridazin-6-yl)-6-[(2S,6S)-2,6-dimethyl-4-piperidyl]pyrido[2,3-d]pyridazin-5-one]
100 to 1000	100 to 1000	Cc1cn2cc(-c3ccc4c(=O)n(C5CCNCC5)cnc4c3)cc(F)c2n1 [Compound 205]
100 to 1000	100 to 1000	Cn1cc2cc(-c3ccc4c(=O)n(C5CCNCC5)cnc4c3)cc(F)c2n1 [Compound 206]
1000 to 10000	1000 to 10000	Cc1cn2cc(-c3ccc4c(=O)n(C5CCN(C)CC5)cnc4c3)cc(F)c2n1 [Compound 207]
1000 to 10000	> 10000	CN1CCC(n2cnc3cc(-c4ccc5nn(C)cc5c4)ccc3c2=O)CC1 [Compound 208]
> 10000	> 10000	CN1CCC(n2cnc3cc(-c4cc(F)c5nn(C)cc5c4)ccc3c2=O)CC1 [Compound 209]
1000 to 10000	1000 to 10000	Cc1cn2cc(-c3ccc4c(=O)n(C5CCNCC5)cnc4c3F)cc(F)c2n1 [Compound 210]
100 to 1000	1000 to 10000	Cc1nc2c(F)cc(-c3ccc4c(c3)CCN(C3CCNCC3)C4=O)cc2o1 [Compound 215]
100 to 1000	1000 to 10000	Cc1cn2cc(-c3ccc4c(c3)CCN(C3CCNCC3)C4=O)cc(Cl)c2n1 [Compound 216, 6-[8-chloro-2-methylimidazo[1,2-a]pyridin-6-yl]-2-(piperidin-4-yl)-3,4-dihydroisoquinolin-1-one]
100 to 1000	> 10000	Cc1cn2cc(-c3ccc4c(c3)CCN(C3CCNCC3)C4=O)cc(C)c2n1 [Compound 217, 6-[2,8-dimethylimidazo[1,2-a]pyridin-6-yl]-2-(piperidin-4-yl)-3,4-dihydroisoquinolin-1-one]
1000 to 10000	1000 to 10000	Cc1cn2cc(-c3ccc4c(c3)CCN(C3CCNCC3)C4=O)c(C)cc2n1 [Compound 218, 6-[2,7-dimethylimidazo[1,2-a]pyridin-6-yl]-2-(piperidin-4-yl)-3,4-dihydroisoquinolin-1-one]
100 to 1000	> 10000	Cc1cc(-c2ccc3c(c2)CCN(C2CCNCC2)C3=O)cc2cn(C)nc12 [Compound 219, 6-(2,7-dimethylindazol-5-yl)-2-(piperidin-4-yl)-3,4-dihydroisoquinolin-1-one]
> 10000	> 10000	O=C1c2ccc(-c3cn[nH]c3)cc2CCN1C1CCNCC1 [Compound 220, 2-(piperidin-4-yl)-6-(1H-pyrazol-4-yl)-3,4-dihydroisoquinolin-1-one]
> 10000	> 10000	Cc1cn2cc(-c3ccc4c(c3)CCN(C3CCNCC3)C4=O)nc2c(C)n1 [Compound 221, 6-[6,8-dimethylimidazo[1,2-a]pyrazin-2-yl]-2-(piperidin-4-yl)-3,4-dihydroisoquinolin-1-one]
1000 to 10000	1000 to 10000	Cc1cn2nc(-c3ccc4c(c3)CCN(C3CCNCC3)C4=O)nc2c(C)n1 [Compound 222, 6-[6,8-dimethyl-[1,2,4]triazolo[1,5-a]pyrazin-2-yl]-2-(piperidin-4-yl)-3,4-dihydroisoquinolin-1-one]
1000 to 10000	> 10000	Cc1cn2nc(-c3ccc4c(c3)CCN(C3CCNCC3)C4=O)cc2c(C)n1 [Compound 223, 6-[4,6-dimethylpyrazolo[1,5-a]pyrazin-2-yl]-2-(piperidin-4-yl)-3,4-dihydroisoquinolin-1-one]
> 10000	> 10000	Cc1cn2cc(-c3ccc4c(c3)CCN(C3CCNCC3)C4=O)ncc2n1 [Compound 224]
1000 to 10000	> 10000	Cn1cc2cc(-c3ccc4c(c3)CCN(C3CCNCC3)C4=O)cc(F)c2n1 [Compound 225]
1000 to 10000	> 10000	Cc1nc2c(F)cc(-c3ccc4c(c3)CCN(C3CCNCC3)C4=O)cc2s1 [Compound 226]
1000 to 10000	> 10000	Cc1cn2cc(-c3ccc4c(=O)n(C5CCN(C)CC5)cnc4c3F)cc(F)c2n1 [Compound 227]

IC50 (MYB) [nM]	IC50 (Target C) [nM]	Structure (SMILES)
100 to 1000	100 to 1000	Cc1cn2cc(-n3cnc4cc(N5CCNCC5)ccc4c3=O)cc(F)c2n1 [Compound 228]
> 10000	> 10000	Cc1cn2cc(-n3cnc4cc(N5CCN(C)CC5)ccc4c3=O)cc(F)c2n1 [Compound 229]
< 100	100 to 1000	Cc1cn2cc(-c3cc(F)c4c(=O)n(C5CCNCC5)cnc4c3)cc(F)c2n1 [Compound 230]
100 to 1000	100 to 1000	Cc1cn2cc(-c3cc(F)c4c(=O)n(C5CCN(C)CC5)cnc4c3)cc(F)c2n1 [Compound 231, 5-fluoro-7-{8-fluoro-2-methylimidazo[1,2-a]pyridin-6-yl}-3-(1-methylpiperidin-4-yl)quinazolin-4-one]
< 100	100 to 1000	Cc1cc(-c2cc(F)c3c(=O)n(C4CCNCC4)cnc3c2)cc2cn(C)nc12 [Compound 232]
100 to 1000	100 to 1000	Cc1cc(-c2cc(F)c3c(=O)n(C4CCN(C)CC4)cnc3c2)cc2cn(C)nc12 [Compound 233]
1000 to 10000	1000 to 10000	Cc1cc(-c2ccc3c(=O)n(C4CCNCC4)cnc3c2F)cc2cn(C)nc12 [Compound 234]
1000 to 10000	> 10000	Cc1cc(-c2ccc3c(=O)n(C4CCN(C)CC4)cnc3c2F)cc2cn(C)nc12 [Compound 235]
100 to 1000	1000 to 10000	Cc1cn2cc(-c3ccc4c(=O)n(C5CCNC6(CC6)C5)cnc4c3)cc(F)c2n1 (stereo not drawn) [Compound 236]
100 to 1000	1000 to 10000	Cc1cn2cc(-c3ccc4c(=O)n(C5CCNC(C)(C)C5)cnc4c3)cc(F)c2n1 (stereo not drawn) [Compound 237]
1000 to 10000	1000 to 10000	Cc1cn2nc(-n3cnc4cc(N5CCNCC5)ccc4c3=O)cc(C)c2n1 [Compound 241]
< 100	< 100	Cc1cn2nc(-c3cc(F)c4c(=O)n(C5CCN(C)CC5)cnc4c3)cc(C)c2n1 [Compound 242]
< 100	100 to 1000	Cc1cn2cc(-c3ncc4c(=O)n([C@H]5CCNC6(CC6)C5)ccc4n3)cc(F)c2n1 [Compound 1458, 6-[(7S)-4-azaspiro[2.5]octan-7-yl]-2-(8-fluoro-2-methyl-imidazo[1,2-a]pyridin-6-yl)pyrido[4,3-d]pyrimidin-5-one]
< 100	100 to 1000	Cc1c(O)c(-c2ncc3c(=O)n([C@H]4CC[C@H](N(C)C)CC4)ccc3n2)cc2cn(C)nc12 [Compound 1459, 6-((1r,4r)-4-(dimethylamino)cyclohexyl)-2-(6-hydroxy-2,7-dimethyl-2H-indazol-5-yl)pyrido[4,3-d]pyrimidin-5(6H)-one]
100 to 1000	1000 to 10000	Cc1c(O)c(-c2ncc3c(=O)n([C@H]4CC[C@@H](N(C)C)CC4)ccc3n2)cc2cn(C)nc12 [Compound 1460, 6-((1s,4s)-4-(dimethylamino)cyclohexyl)-2-(6-hydroxy-2,7-dimethyl-2H-indazol-5-yl)pyrido[4,3-d]pyrimidin-5(6H)-one]
< 100	100 to 1000	Cc1c(O)c(-c2ncc3c(=O)n([C@H]4CCN[C@H](C)C4)ccc3n2)cc2cn(C)nc12 [Compound 1461, 2-(6-hydroxy-2,7-dimethyl-indazol-5-yl)-6-[(2R,4S)-2-methyl-4-piperidyl]pyrido[4,3-d]pyrimidin-5-one]
< 100	100 to 1000	Cc1c(O)c(-c2ncc3c(=O)n([C@@H]4CCN[C@@H](C)C4)ccc3n2)cc2cn(C)nc12 [Compound 1462, 2-(6-hydroxy-2,7-dimethyl-indazol-5-yl)-6-[(2S,4R)-2-methyl-4-piperidyl]pyrido[4,3-d]pyrimidin-5-one]
100 to 1000	1000 to 10000	Cc1c(O)c(-c2ccc3c(=O)n([C@@H]4C[C@@H](C)N[C@@H](C)C4)ccc3n2)cc2cn(C)nc12 [Compound 1463, 6-[(2S,6R)-2,6-dimethyl-4-piperidyl]-2-(6-hydroxy-2,7-dimethyl-indazol-5-yl)-1,6-naphthyridin-5-one]
< 100	100 to 1000	Cc1c(O)c(-c2ccc3c(=O)n([C@H]4C[C@@H](C)N[C@@H](C)C4)ccc3n2)cc2cn(C)nc12 [Compound 1464, 6-[(2S,6R)-2,6-dimethyl-4-piperidyl]-2-(6-hydroxy-2,7-dimethyl-indazol-5-yl)-1,6-naphthyridin-5-one]
100 to 1000	100 to 1000	Cn1cc2cc(-c3ncc4c(=O)n([C@H]5CCNC5)ccc4n3)c(O)c(F)c2n1 [Compound 1465]
100 to 1000	100 to 1000	Cc1cn2nc(-c3ccc4c(=O)n(C5CCN(CCO)C6(CC6)C5)ncc4n3)cc(C)c2n1 (stereo not drawn) [Compound 1541, 2-(2,8-dimethylimidazo[1,2-b]pyridazin-6-yl)-6-[4-(2-hydroxyethyl)-4-azaspiro[2.5]octan-7-yl]pyrido-[2,3-d]pyridazin-5-one]
